Test results: publication PMC3914206

How the values were obtained:
[1] = biological target: T1, panel of 442 kinases (Homo sapiens, UniProt Q9BVS4); type: binding; settings: Compound Concentration 10 µM
T1 construct: purchased KINOMEscan
Source text: (§1) We assessed the selectivity of members of this scaffold using the KINOMEscan methodology across a near comprehensive panel of 442 kinases [[18,27]].

[2] = biological target: T2, panel of 442 kinases (Homo sapiens, UniProt Q9NRP7); type: binding; settings: kinase STK36; compound concentration 10 µM
T2 construct: purchased KINOMEscan
T2 sequence (Q9NRP7 1-1315): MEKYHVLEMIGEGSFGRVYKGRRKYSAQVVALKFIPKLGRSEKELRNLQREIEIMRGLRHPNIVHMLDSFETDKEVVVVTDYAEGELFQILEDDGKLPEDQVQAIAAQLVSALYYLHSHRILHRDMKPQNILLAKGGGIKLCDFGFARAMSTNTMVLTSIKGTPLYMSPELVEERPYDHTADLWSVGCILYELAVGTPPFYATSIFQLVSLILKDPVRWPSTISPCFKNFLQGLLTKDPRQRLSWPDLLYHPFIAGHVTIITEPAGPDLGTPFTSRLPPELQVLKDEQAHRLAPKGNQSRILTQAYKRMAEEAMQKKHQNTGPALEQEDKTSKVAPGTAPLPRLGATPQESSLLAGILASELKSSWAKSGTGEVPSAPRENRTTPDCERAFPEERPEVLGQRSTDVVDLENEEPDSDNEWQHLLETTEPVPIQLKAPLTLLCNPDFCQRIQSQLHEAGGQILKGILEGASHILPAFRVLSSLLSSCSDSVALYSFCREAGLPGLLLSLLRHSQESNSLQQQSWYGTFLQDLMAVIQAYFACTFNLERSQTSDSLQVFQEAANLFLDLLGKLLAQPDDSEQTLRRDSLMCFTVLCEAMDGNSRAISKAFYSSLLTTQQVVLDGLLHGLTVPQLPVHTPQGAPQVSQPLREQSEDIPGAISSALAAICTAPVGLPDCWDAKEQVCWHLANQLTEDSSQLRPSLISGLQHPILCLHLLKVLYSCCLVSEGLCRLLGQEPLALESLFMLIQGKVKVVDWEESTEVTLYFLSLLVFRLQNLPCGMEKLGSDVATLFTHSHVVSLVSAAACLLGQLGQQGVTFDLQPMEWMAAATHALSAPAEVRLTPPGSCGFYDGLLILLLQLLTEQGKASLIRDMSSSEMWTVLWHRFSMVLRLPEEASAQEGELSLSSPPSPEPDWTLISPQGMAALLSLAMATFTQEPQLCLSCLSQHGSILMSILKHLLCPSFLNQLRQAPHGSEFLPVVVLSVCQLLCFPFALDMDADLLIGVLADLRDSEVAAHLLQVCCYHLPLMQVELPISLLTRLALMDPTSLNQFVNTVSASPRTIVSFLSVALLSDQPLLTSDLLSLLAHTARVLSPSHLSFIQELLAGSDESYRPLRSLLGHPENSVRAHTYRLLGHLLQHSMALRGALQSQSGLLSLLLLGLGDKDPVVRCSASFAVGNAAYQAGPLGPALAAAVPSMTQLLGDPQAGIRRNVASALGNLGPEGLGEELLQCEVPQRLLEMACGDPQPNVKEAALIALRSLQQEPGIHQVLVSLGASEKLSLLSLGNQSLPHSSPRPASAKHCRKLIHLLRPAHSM
Source text: as §1

T1 sequence (Q9BVS4 whole entry): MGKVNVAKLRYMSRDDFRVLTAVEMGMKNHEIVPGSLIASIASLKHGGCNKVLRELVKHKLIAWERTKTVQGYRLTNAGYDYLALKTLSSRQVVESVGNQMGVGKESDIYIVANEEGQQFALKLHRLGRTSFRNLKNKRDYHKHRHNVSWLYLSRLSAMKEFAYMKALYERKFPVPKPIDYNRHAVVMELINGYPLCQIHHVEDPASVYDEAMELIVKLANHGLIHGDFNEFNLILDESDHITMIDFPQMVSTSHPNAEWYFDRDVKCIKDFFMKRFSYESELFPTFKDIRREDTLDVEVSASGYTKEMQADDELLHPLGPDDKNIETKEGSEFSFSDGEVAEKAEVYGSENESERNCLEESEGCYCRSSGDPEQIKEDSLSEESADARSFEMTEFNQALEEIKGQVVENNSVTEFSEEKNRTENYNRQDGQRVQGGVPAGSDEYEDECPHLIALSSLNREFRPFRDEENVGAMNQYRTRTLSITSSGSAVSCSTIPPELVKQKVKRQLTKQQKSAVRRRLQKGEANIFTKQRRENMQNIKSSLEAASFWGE

With COc1cc(C(=O)N2CCC(N3CCN(C)CC3)CC2)ccc1Nc1ncc2c(n1)N(C)c1ccccc1C(=O)N2C [15 (LRRK2-IN-1)] the “KINOMEscan: RIOK2” value [1] was 100 and the “% Ctrl, STK36” value [2] was 97 % Ctrl.

With COc1cc(C(=O)N2CCC(N3CCN(C)CC3)CC2)ccc1Nc1ncc2c(n1)N1CCc3cccc(c31)C(=O)N2C [Compound 24] the “KINOMEscan: RIOK2” value [1] was 81.

COc1cc(C(=O)N2CCC(N3CCN(C)CC3)CC2)ccc1Nc1ncc2c(n1)N(C1CCCC1)c1ccccc1C(=O)N2C [Compound 25, 11-cyclopentyl-2-((2-methoxy-4-(4-(4-methylpiperazin-1-yl)piperidine-1-carbonyl)phenyl)amino)-5-methyl-5H-benzo[e]pyrimido[5,4-b][1,4]diazepin-6(11H)-one] was tested, and the “KINOMEscan: RIOK2” value [1] was 93 and the “% Ctrl, STK36” value [2] was 96 % Ctrl.

With CCOc1cc(C(=O)N2CCC(N3CCN(C)CC3)CC2)ccc1Nc1ncc2c(n1)N(C1CCCC1)c1ccccc1C(=O)N2C [Compound 26] the “KINOMEscan: RIOK2” value [1] was 81 and the “% Ctrl, STK36” value [2] was 99 % Ctrl.
